Measured values as given in US20230278972A1, “SUBSTITUTED HALOALKYL SULFONANILIDE HERBICIDES” (FMC Corporation, priority 2020, published 2023).

Legend:
Type in all cases: in vivo
corn (Zea mays) [1] = test: Test A1 preemergence, corn
Outline: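 Postemergence species (ragweed, Palmer pigweed, wild oat) were sprayed at one- to two-leaf stage, 2 to 10 cm tall. Corn was treated preemergence by directed soil spray. Both used a loam soil/sand blend and compounds in a non-phytotoxic solvent mixture with surfactant.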

[2] = tested on: horseweed (Erigeron canadensis); test: Test A1 postemergence, horseweed; details: Postemergence
Outline: (§1)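 Pre: seeds in loam/sand blend, directed soil spray. Post: potted plants, same soil, 2–10 cm, 1–2 leaf stage. Chemicals in non-phytotoxic solvent + surfactant for both.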

[3] = tested on: ducksalad (Heteranthera limosa); test: Test B1 flooded paddy test, ducksalad; details: 250 g ai/ha, Flood, applied to paddy water, 2-leaf stage, visually evaluated after 10 to 14 days
Text: A dash (-) response means no test result.

soybean (Glycine max) [4] = test: Test A1 postemergence, soybean; details: Postemergence
Outline: as §1

corn (Zea mays) [5] = test: Test A1 postemergence, corn; details: Postemergence
Outline: (§2)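 Herbicidal response was scored on plants treated either preemergence, by directed spray onto soil of a loam–sand blend after sowing, or postemergence on potted plants at the one- to two-leaf stage, 2–10 cm high. Test chemicals were carried in a non-phytotoxic solvent mix with surfactant.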

[6] = tested on: wheat (Triticum aestivum); test: Test A1 preemergence, wheat
Outline: as §2

[7] = tested on: wheat (Triticum aestivum); test: Test A1 postemergence, wheat; details: Postemergence
Outline: as §1

[8] = tested on: Oat, Wild (wild oat, Avena fatua); test: Test A1 preemergence, Oat, Wild
Outline: as §2

soybean (Glycine max) [9] = test: Test A1 preemergence, soybean
Outline: as §2

[10] = 31 g ai/ha, 0 to 100 scale (0 no effect, 100 complete control)
[11] = 125 g ai/ha, 0 to 100 scale, 0 no effect, 100 complete control
[12] = 31 g ai/ha, 0 to 100 scale (0 no effect, 100 complete control), 10 days

Structure (SMILES): Cc1cc(C)c(-n2nccc(C)c2=O)cc1NS(=O)(=O)C(F)(F)F [Compound 281]
- Plant response rating, Corn (corn (Zea mays) [1]; [10]): 0
- Plant response rating, Corn (corn (Zea mays) [1]; [11]): 0
- Plant response rating, Horseweed [2, 12]: 100
- Plant response rating, Horseweed ([2]; 125 g ai/ha, 0 to 100 scale): 70
- Plant response rating, Ducksalad (0 to 100 scale, 0 is no effect, 100 is complete control) [3]: 0
- Plant response rating, Soybean (soybean (Glycine max) [4]; [12]): 50
- Plant response rating, Soybean (soybean (Glycine max) [4]; 125 g ai/ha, 0 to 100 scale): 60
- Plant response rating, Corn (corn (Zea mays) [5]; [12]): 0
- Plant response rating, Corn (corn (Zea mays) [5]; 125 g ai/ha, 0 to 100 scale): 0
- Plant response rating, Wheat [6, 10]: 0
- Plant response rating, Wheat [6, 11]: 20
- Plant response rating, Wheat [7, 12]: 0
- Plant response rating, Wheat ([7]; 125 g ai/ha, 0 to 100 scale): 20
- Plant response rating, Oat, Wild [8, 10]: 50
- Plant response rating, Oat, Wild [8, 11]: 0
- Plant response rating, Soybean (soybean (Glycine max) [9]; [10]): 0
- Plant response rating, Soybean (soybean (Glycine max) [9]; [11]): 80

Structure (SMILES): Cc1cc(C)c(C2=NOC(OCC(C)C)C2)cc1NS(=O)(=O)C(F)(F)F (stereo not drawn) [Compound 322]
- Plant response rating, Corn (corn (Zea mays) [1]; [10]): 0
- Plant response rating, Corn (corn (Zea mays) [1]; [11]): 30
- Plant response rating, Horseweed [2, 12]: 0
- Plant response rating, Horseweed ([2]; 125 g ai/ha, 0 to 100 scale): 40
- Plant response rating, Ducksalad (0 to 100 scale, 0 is no effect, 100 is complete control) [3]: 0
- Plant response rating, Soybean (soybean (Glycine max) [4]; [12]): 20
- Plant response rating, Soybean (soybean (Glycine max) [4]; 125 g ai/ha, 0 to 100 scale): 30
- Plant response rating, Corn (corn (Zea mays) [5]; [12]): 0
- Plant response rating, Corn (corn (Zea mays) [5]; 125 g ai/ha, 0 to 100 scale): 0
- Plant response rating, Wheat [6, 10]: 0
- Plant response rating, Wheat [6, 11]: 50
- Plant response rating, Wheat [7, 12]: 0
- Plant response rating, Wheat ([7]; 125 g ai/ha, 0 to 100 scale): 30
- Plant response rating, Oat, Wild [8, 10]: 0
- Plant response rating, Oat, Wild [8, 11]: 30
- Plant response rating, Soybean (soybean (Glycine max) [9]; [10]): 0
- Plant response rating, Soybean (soybean (Glycine max) [9]; [11]): 0

Structure (SMILES): Cc1cc(C)c(N(COC(=O)C(C)(C)C)S(=O)(=O)C(F)(F)F)cc1C(=O)N1CCOCC1 [Compound 362]
- Plant response rating, Corn (corn (Zea mays) [1]; [10]): 0
- Plant response rating, Corn (corn (Zea mays) [1]; [11]): 30
- Plant response rating, Horseweed [2, 12]: 90
- Plant response rating, Horseweed ([2]; 125 g ai/ha, 0 to 100 scale): 90
- Plant response rating, Ducksalad (0 to 100 scale, 0 is no effect, 100 is complete control) [3]: 50
- Plant response rating, Soybean (soybean (Glycine max) [4]; [12]): 50
- Plant response rating, Soybean (soybean (Glycine max) [4]; 125 g ai/ha, 0 to 100 scale): 70
- Plant response rating, Corn (corn (Zea mays) [5]; [12]): 0
- Plant response rating, Corn (corn (Zea mays) [5]; 125 g ai/ha, 0 to 100 scale): 40
- Plant response rating, Wheat [6, 10]: 20
- Plant response rating, Wheat [6, 11]: 70
- Plant response rating, Wheat [7, 12]: 40
- Plant response rating, Wheat ([7]; 125 g ai/ha, 0 to 100 scale): 60
- Plant response rating, Oat, Wild [8, 10]: 0
- Plant response rating, Oat, Wild [8, 11]: 30
- Plant response rating, Soybean (soybean (Glycine max) [9]; [10]): 10
- Plant response rating, Soybean (soybean (Glycine max) [9]; [11]): 40

Structure (SMILES): Cc1c(NS(=O)(=O)C(F)(F)F)cc(C(=O)N(C)C)c(C)c1C [Compound 288]
- Plant response rating, Corn (corn (Zea mays) [1]; [10]): 0
- Plant response rating, Corn (corn (Zea mays) [1]; [11]): 0
- Plant response rating, Horseweed [2, 12]: 20
- Plant response rating, Horseweed ([2]; 125 g ai/ha, 0 to 100 scale): 30
- Plant response rating, Ducksalad (0 to 100 scale, 0 is no effect, 100 is complete control) [3]: 60
- Plant response rating, Soybean (soybean (Glycine max) [4]; [12]): 30
- Plant response rating, Soybean (soybean (Glycine max) [4]; 125 g ai/ha, 0 to 100 scale): 40
- Plant response rating, Corn (corn (Zea mays) [5]; [12]): 0
- Plant response rating, Corn (corn (Zea mays) [5]; 125 g ai/ha, 0 to 100 scale): 10
- Plant response rating, Wheat [6, 10]: 0
- Plant response rating, Wheat [6, 11]: 0
- Plant response rating, Wheat [7, 12]: 0
- Plant response rating, Wheat ([7]; 125 g ai/ha, 0 to 100 scale): 10
- Plant response rating, Oat, Wild [8, 10]: 0
- Plant response rating, Oat, Wild [8, 11]: 0
- Plant response rating, Soybean (soybean (Glycine max) [9]; [10]): 30
- Plant response rating, Soybean (soybean (Glycine max) [9]; [11]): 40

Structure (SMILES): Cc1cc(C)c(N(COC(=O)C(C)(C)C)S(=O)(=O)C(F)(F)F)cc1C(=O)N1CCC(F)(F)CC1 [Compound 350]
- Plant response rating, Corn (corn (Zea mays) [1]; [10]): 0
- Plant response rating, Corn (corn (Zea mays) [1]; [11]): 0
- Plant response rating, Horseweed [2, 12]: 90
- Plant response rating, Horseweed ([2]; 125 g ai/ha, 0 to 100 scale): 100
- Plant response rating, Ducksalad (0 to 100 scale, 0 is no effect, 100 is complete control) [3]: 80
- Plant response rating, Soybean (soybean (Glycine max) [4]; [12]): 10
- Plant response rating, Soybean (soybean (Glycine max) [4]; 125 g ai/ha, 0 to 100 scale): 40
- Plant response rating, Corn (corn (Zea mays) [5]; [12]): 0
- Plant response rating, Corn (corn (Zea mays) [5]; 125 g ai/ha, 0 to 100 scale): 0
- Plant response rating, Wheat [6, 10]: 0
- Plant response rating, Wheat [6, 11]: 10
- Plant response rating, Wheat [7, 12]: 0
- Plant response rating, Wheat ([7]; 125 g ai/ha, 0 to 100 scale): 10
- Plant response rating, Oat, Wild [8, 10]: 0
- Plant response rating, Oat, Wild [8, 11]: 10
- Plant response rating, Soybean (soybean (Glycine max) [9]; [10]): 0
- Plant response rating, Soybean (soybean (Glycine max) [9]; [11]): 0

Structure (SMILES): Cc1cc(C(F)(F)F)c(C2=NOC3CCCC23)cc1NS(=O)(=O)C(F)(F)F (stereo not drawn) [Compound 306]
- Plant response rating, Corn (corn (Zea mays) [1]; [10]): 0
- Plant response rating, Corn (corn (Zea mays) [1]; [11]): 0
- Plant response rating, Horseweed [2, 12]: 0
- Plant response rating, Horseweed ([2]; 125 g ai/ha, 0 to 100 scale): 40
- Plant response rating, Ducksalad (0 to 100 scale, 0 is no effect, 100 is complete control) [3]: 85
- Plant response rating, Soybean (soybean (Glycine max) [4]; [12]): 20
- Plant response rating, Soybean (soybean (Glycine max) [4]; 125 g ai/ha, 0 to 100 scale): 40
- Plant response rating, Corn (corn (Zea mays) [5]; [12]): 0
- Plant response rating, Corn (corn (Zea mays) [5]; 125 g ai/ha, 0 to 100 scale): 0
- Plant response rating, Wheat [6, 10]: 0
- Plant response rating, Wheat [6, 11]: 0
- Plant response rating, Wheat [7, 12]: 0
- Plant response rating, Wheat ([7]; 125 g ai/ha, 0 to 100 scale): 20
- Plant response rating, Oat, Wild [8, 10]: 0
- Plant response rating, Oat, Wild [8, 11]: 10
- Plant response rating, Soybean (soybean (Glycine max) [9]; [10]): 0
- Plant response rating, Soybean (soybean (Glycine max) [9]; [11]): 0
